pIC50: −log10 of the molar value.
Tests used:
Neprilysin = Neprilysin (Homo sapiens, UniProt P08473); test: Inhibition of NEP
[1] = target: Angiotensin-converting enzyme (Homo sapiens, UniProt P12821); test: Inhibition of ACE
[2] = Inhibition of ECE

| pIC50 (Neprilysin) | pIC50 [1] | pIC50 [2] | SMILES |
| --- | --- | --- | --- |
| 8.70 | 7.54 |  | CC(C)CN(CP(=O)(O)O)C(=O)N[C@@H](Cc1ccc2ccccc2c1)C(=O)O |
| 6.19 | 5.70 | 6.22 | O=C(O)[C@H](Cc1ccc2ccccc2c1)NC(=O)N(CCN1C(=O)c2cccc3cccc(c23)C1=O)C[C@H](O)C(=O)O |
| 8.00 | 7.46 | 5.46 | CC(C)CN(C[C@H](O)C(=O)O)C(=O)N[C@@H](Cc1ccc(-c2ccccc2)cc1)C(=O)O |
| 8.22 |  |  | CC(C)CN(CCP(=O)(O)O)C(=O)N[C@@H](Cc1ccc2ccccc2c1)C(=O)O |
| 8.30 | 6.72 |  | CC(C)(C)CN(C[C@H](O)C(=O)O)C(=O)N[C@@H](Cc1ccc2ccccc2c1)C(=O)O |
| 7.72 | 7.64 |  | CC(C)CN(C[C@H](O)C(=O)O)C(=O)N[C@@H](Cc1ccc(O)c(O)c1)C(=O)O |
| 7.44 |  |  | CCC(CC)CN(C[C@H](O)C(=O)O)C(=O)N[C@@H](Cc1ccc2ccccc2c1)C(=O)O |
| 8.05 | 6.96 |  | CC(C)CN(C[C@H](O)C(=O)O)C(=O)N[C@@H](Cc1cccc2ccccc12)C(=O)O |
| 8.22 | 7.22 |  | CC(C)CN(C[C@H](O)C(=O)O)C(=O)N[C@@H](Cc1ccc(O)cc1)C(=O)O |
| 8.10 | 6.99 | 4.78 | CC(C)CN(C[C@H](O)C(=O)O)C(=O)N[C@@H](Cc1c[nH]c2ccccc12)C(=O)O |
|  | 7.40 |  | O=C1c2ccccc2C(=O)c2cc(CN(C[C@H](O)C(=O)O)C(=O)N[C@@H](Cc3ccc4ccccc4c3)C(=O)O)ccc21 |
| 4.72 | 6.82 |  | O=C(O)[C@H](Cc1ccc2ccccc2c1)NC(=O)N(Cc1ccc2c(c1)Cc1ccccc1-2)C[C@H](O)C(=O)O |
|  | 7.41 |  | O=C1c2ccccc2-c2ccc(CN(C[C@H](O)C(=O)O)C(=O)N[C@@H](Cc3ccc4ccccc4c3)C(=O)O)cc21 |

| SMILES | pIC50 (Neprilysin) | pIC50 [1] | pIC50 [2] |
| --- | --- | --- | --- |
| CC(C)CN(C[C@H](O)C(=O)O)C(=O)N[C@@H](Cc1ccc2ccccc2c1)C(=O)O | 8.40 | 7.28 | 5.60 |

Source: ChEMBL document CHEMBL1143110, “Targeting ACE and ECE with dual acting inhibitors” (Bioorg Med Chem Lett, 2008)
